Source: paper PMC7702721 (The AAPS journal, 2016)
Read-outs that look alike come from different tables or passages of the source.

Columns and labels:
[1] = Pharmacokinetic study in rats after oral administration of kaempferol; format: in vivo, Sprague–Dawley (SD) rats; conditions: for Cmax / MRT last / Tmax / AUC0-t / AUC0−∞ / MRT0-t: plasma; for AUC0−∞: predicted AUC
[2] = format: in vivo, FVB mice; conditions: oral kaempferol 10 mg/kg; for fold higher plasma Cmax and AUC0-t in absence of Bcrp versus wild-type: Bcrp1^−/− vs wild-type FVB mice
[3] = In situ four-site rat intestinal perfusion of kaempferol
[4] = tested on: Caco-2 monolayer; test: Transporter inhibition experiments in the Caco-2 monolayer; conditions: kaempferol 10 μM
[5] = tested on: rat hepatic and segmental intestinal preparations; test: Kaempferol glucuronidation via rat hepatic and segmental intestinal microsomes; format: in vitro ADME, SD rats
[6] = tested on: Caco-2 monolayer; test: Bidirectional efflux of kaempferol-glucuronides across the Caco-2 monolayer; format: in vitro ADME; conditions: 10 μM kaempferol loaded AP or BL, 2 h
[7] = tested on: hepatic and intestinal S9 fractions; format: in vitro ADME, FVB mice; conditions: kaempferol 1.25 μM
[8] = tested on: hepatic and intestinal S9 fractions; format: in vitro ADME, FVB mice; conditions: kaempferol 0.125 μM
[9] = tested on: rat hepatic and segmental intestinal preparations; test: Kaempferol sulfation via rat hepatic and segmental intestinal S9 fraction; format: in vitro ADME, SD rats; conditions: kaempferol 0.125, 0.5 and 1.25 μM, S9 fraction 0.02 mg/mL
[10] = ref [20]; cited from earlier work
[11] = rat, in vivo
[12] = male, Sprague-Dawley, rat, po, 10 mg/kg
[13] = male, Sprague-Dawley, rat, po, 20 mg/kg
[14] = male SD rats, oral kaempferol 10 mg/kg, n = 6
[15] = male SD rats, oral kaempferol 20 mg/kg, n = 6
[16] = perfusion with 5 μM or 20 μM kaempferol

SMILES: O=c1c(O)c(-c2ccc(O)cc2)oc2cc(OS(=O)(=O)O)cc(O)c12 [K-7-S, kaempferol-7-sulfate]
- Cmax [1, 12]: 0.332 ± 0.085 µM
- MRT last [1, 12]: 17.5 h
- Tmax [1, 12]: 18.7 h
- Cmax [1, 13]: 0.703 ± 0.296 µM
- MRT last [1, 13]: 18.2 h
- Tmax [1, 13]: 15.2 h
- AUC0-t [1, 14]: 454 ± 90 µmol·min/L
- AUC0-t [1, 15]: (1.15 ± 0.22) ×10^3 min•μmol/L
- AUC0−∞ [1, 14]: 536 ± 164 µmol·min/L
- AUC0−∞ [1, 15]: (1.65 ± 0.56) ×10^3 min•μmol/L
- time after dose at which still detected in plasma ([1]; rats, oral kaempferol): 36 h
- AUC0-t ([2]; Bcrp1^−/− FVB mice): 156 ± 55 µmol·min/L
- AUC0-t ([2]; Mdr1a^−/− FVB mice): 36.7 ± 37.0 µmol·min/L
- AUC0-t ([2]; Mrp1^−/− FVB mice): 6.72 ± 5.83 µmol·min/L
- AUC0-t ([2]; Mrp2^−/− FVB mice): 102 ± 10 µmol·min/L
- Cmax ([2]; male, FVB, mouse, plasma, po, 10 mg/kg, Cmax, wild-type FVB mice): 0.301 ± 0.185 µM
- MRT ([2]; male, FVB, mouse, plasma, po, 10 mg/kg, MRT, wild-type FVB mice): 2.75 h
- AUC0-t ([2]; wild-type FVB mice): 49.5 ± 38.6 µmol·min/L
- regional excretion of metabolite in the perfusate [3, 16]: highest excretion in colon and lowest excretion in ileum

SMILES: CCCCC/C=C\C\C=C/C=C/C=C/[C@@H](SC[C@H](NC(=O)CC[C@H](N)C(=O)O)C(=O)NCC(=O)O)[C@@H](O)CCCC(=O)O [LTC4]
- effect on Fmet (BL to AP) of the three metabolites ([4]; LTC4 0.1 μM): decreased
- effect on intracellular amounts of K-3-G and K-7-G (AP to BL) ([4]; LTC4 0.1 μM): significantly increased
- effect on amounts of the three metabolites in the AP side ([4]; LTC4 0.1 μM, except K-7-S (AP to BL)): reduced

SMILES: COc1ccc2c3c([nH]c2c1)[C@H](CC(C)C)N1C(=O)[C@H](CCC(=O)OC(C)(C)C)NC(=O)[C@@H]1C3 [Ko143]
- effect on bidirectional efflux rates and Fmet of the two glucuronides ([4]; Ko143 10 μM): significantly decreased
- effect on efflux rates and Fmet of K-7-S ([4]; Ko143 10 μM): No statistical differences

SMILES: O=C(O)[C@H]1O[C@@H](Oc2cc(O)c3c(=O)c(O)c(-c4ccc(O)cc4)oc3c2)[C@H](O)[C@@H](O)[C@@H]1O [K-7-G, kaempferol-7-glucuronide]
- AUC0-t [1, 14]: 310 ± 95 µmol·min/L
- Cmax [1, 14]: 5.29 ± 2.97 µM
- MRT0-t [1, 14]: 2.1 ± 0.617 h
- Tmax [1, 14]: 0.292 ± 0.0833 h
- AUC0-t [1, 15]: 802 ± 231 µmol·min/L
- Cmax [1, 15]: 9.55 ± 3.37 µM
- MRT0-t [1, 15]: 2.17 ± 0.717 h
- Tmax [1, 15]: 0.267 ± 0.0917 h
- AUC0−∞ [1, 14]: 314 ± 96 µmol·min/L
- AUC0−∞ [1, 15]: 811 ± 311 µmol·min/L
- AUC0-t ([2]; Bcrp1^−/− FVB mice): 464 ± 234 µmol·min/L
- Cmax ([2]; Bcrp1^−/− FVB mice): 14.9 ± 3.6 µM
- MRT ([2]; Bcrp1^−/− FVB mice): 0.757 ± 0.372 h
- fold higher plasma Cmax and AUC0-t in absence of Bcrp versus wild-type [2]: > 4 fold
- AUC0-t ([2]; Mdr1a^−/− FVB mice): 63.1 ± 15.3 µmol·min/L
- Cmax ([2]; Mdr1a^−/− FVB mice): 1.12 ± 0.68 µM
- MRT ([2]; Mdr1a^−/− FVB mice): 4.07 ± 0.367 h
- AUC0-t ([2]; Mrp1^−/− FVB mice): 13.9 ± 12.0 µmol·min/L
- Cmax ([2]; Mrp1^−/− FVB mice): 0.839 ± 0.853 µM
- MRT ([2]; Mrp1^−/− FVB mice): 0.43 ± 0.277 h
- AUC0-t ([2]; Mrp2^−/− FVB mice): 392 ± 78 µmol·min/L
- Cmax ([2]; Mrp2^−/− FVB mice): 14.3 ± 4.8 µM
- MRT ([2]; Mrp2^−/− FVB mice): 1.52 ± 0.302 h
- AUC0-t ([2]; wild-type FVB mice): 114 ± 79 µmol·min/L
- Cmax ([2]; wild-type FVB mice): 2.91 ± 1.94 µM
- MRT ([2]; wild-type FVB mice): 1.36 ± 0.57 h
- glucuronide formation by liver microsomes, K-7-G versus K-3-G ([5]; rat liver microsomes): more K-7-G than K-3-G
- efflux toward the BL side compared with that toward the AP side [6]: not more than twice higher
- amount of K-7-G in the perfusate compared with K-3-G ([3]; 20 μM perfusion): slightly higher than that of K-3-G in duodenum and jejunum, but was significantly higher in ileum and colon
- regional excretion of metabolite in the perfusate [3, 16]: highest excretion in duodenum and jejunum and the lowest excretion in colon

SMILES: CN(C)C(=O)CCSC(SCCC(=O)O)c1cccc(/C=C/c2ccc3ccc(Cl)cc3n2)c1 (stereo not drawn) [MK571]
- effect on intracellular amounts of the three metabolites ([4]; MK571 10 μM): did not significantly influence
- effect on the three metabolites transported into BL side ([4]; MK571 10 μM): dramatically reduced
- effect on efflux rates of the three metabolites toward the BL side ([4]; MK571 10 μM, except K-7-G (AP to BL)): significantly lowered

SMILES: O=c1c(O)c(-c2ccc(O)cc2)oc2cc(O)cc(O)c12 [Kaempferol, 3,4′,5,7-trihydroxyflavone]
- Cmax [1, 12]: 0.305 ± 0.106 µM
- MRT last [1, 12]: 0.437 h
- Tmax [1, 12]: 0.445 h
- Cmax [1, 13]: 0.647 ± 0.244 µM
- MRT last [1, 13]: 2.47 h
- Tmax [1, 13]: 0.3 h
- AUC0-t [1, 14]: 10.3 ± 3.8 µmol·min/L
- AUC0-t [1, 15]: 51.8 ± 17.2 µmol·min/L
- AUC0−∞ [1, 14]: 11.4 ± 3.7 µmol·min/L
- AUC0−∞ [1, 15]: 57.9 ± 13.6 µmol·min/L
- Cmax of kaempferol, times lower than that of K-3-G ([1]; rats, oral kaempferol): approximately 50 times
- Cmax of kaempferol, times lower than that of K-7-G ([1]; rats, oral kaempferol): ~16 times
- time to reach Cmax ([1]; rats, oral kaempferol): ≤ 30 min
- free kaempferol plasma concentration (below LLOQ) ([2]; at most periods, all strains of mice): < 3.9 nM
- increase of glucuronidation rate versus wild-type ([7]; liver S9, Bcrp1^−/− mice): 32%
- decrease of hepatic glucuronidation rate versus wild-type ([7]; liver S9, Mdr1a^−/− mice): ~30%
- decrease of hepatic glucuronidation rate versus wild-type ([7]; liver S9, Mrp1^−/− mice): ~ 26%
- decrease of hepatic glucuronidation rate versus wild-type ([7]; liver S9, Mrp2^−/− mice): ~ 11%
- decrease of sulfation rate versus wild-type ([8]; intestine S9, Mdr1a^−/− mice): ~47%
- decrease of sulfation rate versus wild-type ([8]; intestine S9, Mrp1^−/− mice): ~ 25%
- decrease of sulfation rate versus wild-type ([8]; intestine S9, Mrp2^−/− mice): ~79%
- decrease of sulfation rate versus wild-type ([8]; liver S9, Mdr1a^−/− mice): ~39%
- decrease of sulfation rate versus wild-type ([8]; liver S9, Mrp1^−/− mice): ~ 11%
- decrease of sulfation rate versus wild-type ([8]; liver S9, Mrp2^−/− mice): ~59%
- glucuronidation rates by segment ([5]; kaempferol 1.25, 2.5 and 10 μM, microsomes 0.00318 mg/mL): high and low glucuronidation rates were observed in the small intestine and colon, respectively
- sulfation reaction rates by tissue [9]: highest reaction rates in liver
- bioavailability [10]: lower than 2%
- regional absorption of kaempferol [3, 16]: faster absorption in colon than in jejunum and ileum

SMILES: O=C(O)[C@H]1O[C@@H](Oc2c(-c3ccc(O)cc3)oc3cc(O)cc(O)c3c2=O)[C@H](O)[C@@H](O)[C@@H]1O [K-3-G, kaempferol-3-glucuronide]
- AUC0-t [1, 14]: (1.74 ± 0.47) ×10^3 min•μmol/L
- Cmax [1, 14]: 24.6 ± 7 µM
- MRT0-t [1, 14]: 1.48 ± 0.233 h
- Tmax [1, 14]: 0.333 ± 0.148 h
- AUC0-t [1, 15]: (2.79 ± 0.33) ×10^3 min•μmol/L
- Cmax [1, 15]: 30.9 ± 5.5 µM
- MRT0-t [1, 15]: 1.9 ± 0.467 h
- Tmax [1, 15]: 0.4 ± 0.0917 h
- AUC0−∞ [1, 14]: (1.76 ± 0.46) ×10^3 min•μmol/L
- AUC0−∞ [1, 15]: (2.81 ± 0.33) ×10^3 min•μmol/L
- AUC of K-3-G, times higher than that of K-7-G ([1]; rats, 10 mg/kg kaempferol): five
- AUC of K-3-G, times higher than that of K-7-S ([1]; rats, 10 mg/kg kaempferol): four
- Cmax and AUC of K-3-G relative to K-7-G ([1]; rats, oral kaempferol): threefold to fivefold higher
- AUC0-t ([2]; Bcrp1^−/− FVB mice): 848 ± 123 µmol·min/L
- Cmax ([2]; Bcrp1^−/− FVB mice): 18 ± 6.4 µM
- MRT ([2]; Bcrp1^−/− FVB mice): 1.62 ± 0.362 h
- fold higher plasma Cmax and AUC0-t in absence of Bcrp versus wild-type [2]: ~ 2 fold
- AUC0-t ([2]; Mdr1a^−/− FVB mice): 143 ± 83 µmol·min/L
- Cmax ([2]; Mdr1a^−/− FVB mice): 4.62 ± 1.14 µM
- MRT ([2]; Mdr1a^−/− FVB mice): 1.88 ± 1.18 h
- AUC0-t ([2]; Mrp1^−/− FVB mice): 38.0 ± 29.1 µmol·min/L
- Cmax ([2]; Mrp1^−/− FVB mice): 1.75 ± 1.18 µM
- MRT ([2]; Mrp1^−/− FVB mice): 0.557 ± 0.332 h
- AUC0-t ([2]; Mrp2^−/− FVB mice): (1.28 ± 0.27) ×10^3 min•μmol/L
- Cmax ([2]; Mrp2^−/− FVB mice): 32.3 ± 9.7 µM
- MRT ([2]; Mrp2^−/− FVB mice): 1.51 ± 0.183 h
- AUC0-t ([2]; wild-type FVB mice): 365 ± 195 µmol·min/L
- Cmax ([2]; wild-type FVB mice): 8.92 ± 1.69 µM
- MRT ([2]; wild-type FVB mice): 1.72 ± 0.483 h
- efflux toward the BL side compared with that toward the AP side [6]: approximately six times higher
- detection in plasma during perfusion [11]: detected in plasma
- regional excretion of metabolite in the perfusate [3, 16]: highest excretion in duodenum and jejunum and the lowest excretion in colon
